From patent publication US10709784B2, “Metal chelating compositions and methods for controlling the growth or activities of a living cell or organism” (CHELATION PARTNERS INCORPORATED, priority 2011, dated 2020)
Where two headings read alike, the source gives them in different places.

What was measured:
[1] = system: E. coli; test: MIC of chelators in Fe-restricted RPMI; type: cell-based, Escherichia coli
Procedure: (§1) Soluble chelating compositions prepared as in example 4 and example 6 as well as the commercially clinically used low molecular weight (<1500 Da) chelators desferal (Novartis Pharmaceutical Company) and deferiprone (Apotex Pharmaceutical Company) were tested as to their MICs against representative pathogenic bacterial species in RPMI medium that had been treated as in example 38 but to which Fe was re-added to known concentrations that permitted growth of the bacteria under partially Fe restrictive conditions, i.e., so as to simulate the low Fe environmental supply available during infection by these bacteria in man or other animals. MIC testing was done in a manner similar to that described for example 15 but with test series being conducted in multi-well microtiter plates, each well providing a separate treatment test.
(§2) The clinically used chelators were not inhibitory in the case of Pseudomonas aeruginosa with no inhibition observed at the highest concentration tested (300 μg/ml for desferal and 100 μg/ml for deferiprone). Staphylococcus aureus was not inhibited by desferal and was inhibited by deferiprone to a lesser extent than for the soluble compositions of the present invention. Conversely, Escherichia coli was not inhibited by deferiprone but was inhibited substantially by desferal.

[2] = system: S. aureus; test: MIC of chelators in Fe-restricted RPMI; type: cell-based; details: Staphylococcus aureus
Procedure: as §1, §2

[3] = system: P. aeruginosa; test: MIC of chelators in Fe-restricted RPMI; type: cell-based, Pseudomonas aeruginosa
Procedure: as §1, §2

[4] = system: Clinical isolates of Staphylococcus aureus; test: Growth inhibition of clinical isolates in MHB (turbidity 600 nm); type: cell-based; details: over 7 mM Fe binding equivalents, overnight
Description: Clinical isolates of Staphylococcus aureus as obtained from human infections were obtained and are obtainable from the culture collection of Warren Grubb, Curtin University, Perth, Australia. It should be noted that the clinical isolates as obtained from patients at the Royal Perth Hospital in Perth Australia can be expected to have strong similarities to other clinical isolates of this bacterium as obtained elsewhere in the world as the genetic determinants of antibiotic resistance characteristics in Staphylococcus aureus are now generally understood. Thus, similar results to those shown in examples 14-17 can be expected with other clinical isolates as obtained elsewhere and having similar antibiotic resistance patterns to those tested for these examples. […]
A range of dilutions of the deferiprone or soluble chelating composition was prepared in MHB in test tubes so as to provide a range of added iron chelating capacity as measured in Fe binding equivalents. […] The tubes were incubated at an angle on a reciprocating shaker at 37° C. overnight and the growth results were scored as a percentage of growth based on measured turbidity at a wavelength of 600 nm with a spectrophotometer of the test sample, as compared to a control samples that had received no added deferiprone or soluble chelating composition. […]

[5] = system: Candida albicans ATCC 10231; test: Growth with chelating materials of different molecular weight, 84 hours; type: cell-based; details: 30° C., defined medium without added iron, FIG. 8
Procedure: Candida albicans ATCC 10231 was tested for its sensitivities to: the medical chelator deferiprone (#1 in the graph of FIG. 8) (a product of Apotex Pharmaceuticals); the precursor chemicals used for the preparation of soluble chelating compositions of the present invention, including 3-hydroxy-2-methyl-4-pyrone (#2 in the graph of FIG. 8), AHMP as from Example 1 (#3 in the graph of FIG. 8) and MAHMP as from Example 2 (#4 in the graph of FIG. 8) and also the soluble chelating composition as from Example 4 (#5 in the graph of FIG. 8). The yeast was grown in defined medium as for Example 18 with no additional added iron (i.e., the only but adequate Fe available for the yeast was contributed from being present along with the other added medium components). Growth of the yeast in the defined media with added test chelating materials was compared to control samples that had not received any of the chelating materials following 84 hours of incubation and growth at 30° C. […] These chelators being internalized by the yeast were incapable of restricting iron supply to the yeast cells. […] Thus, low molecular weight chelators such as deferiprone and similar compounds permitted growth while the soluble chelating composition that contained functional groups similar to deferiprone but was a molecular weight higher than 1500 Daltons restricted growth, eventhough the various compounds tested were each capable of binding iron through their pyridinone functionality.

[6] = Overall Fe association constants; type: binding; details: Fe (III)
Description: Measurement of the Fe binding strengths can be measured and compared for different chelating materials.

[7] = system: antibiotic resistant strains of Staphylococcus aureus; test: NCCLS MIC antibiotic sensitivity with added chelator; type: cell-based; details: strain WBG525
Procedure: Sensitive or antibiotic resistant strains of Staphylococcus aureus (S. aureus) were grown on blood agar plates overnight at 37° C. Four to six individual colonies of each strain were harvested into Mueller-Hinton broth (MHB) and incubated at 37° C. until they reached an optical density equal to or exceeding a 0.5 McFarland standard. The culture was diluted with MHB to equal 0.5 McFarland standard. Dilutions (10^−1) of these standards were used for inocula. Various stains of antibiotic resistant Staphylococcus aureus were used for these tests as shown in the results below. It should be appreciated that growing the bacterial strains on blood agar and then in MHB ensured the inoculum was not restricted for iron prior to the test but rather the bacterial cells were with ample endogenous iron supply.
A range of two-fold dilutions of a test antibiotic was prepared in MHB. […] Soluble and insoluble chelating compositions, as prepared in Example 6 or Example 5, or the free iron chelating agent deferiprone were added to the antibiotic containing tubes at known concentrations of iron binding capacity (referred to as iron binding equivalents) to allow direct comparison of the different compositions or free chelator. The final volume per tube was 500 μl. Bacterial inoculum, 25 μl of the 10^−1 dilutions of the appropriate S. aureus strain was added to each tube. The tubes were incubated at an angle on a reciprocating shaker at 37° C. overnight and results were scored as growth based on turbidity or no growth (lack of turbidity). The Minimum Inhibitory Concentration (MIC) for the antibiotic was determined from the growth results.
A series of tests was set up as in Example 15 with various antibiotic anti-cellular agents. The clinically isolated strains were obtained from the culture collection of Warren Grubb, Curtin University, Perth, Australia.
A series of antibiotic sensitivity tests was set up as in example 16 utilizing the soluble chelating compositions as prepared in Example 6. Separate test series with different clinically isolated Staphylococcus aureus strains, as obtained from the culture collection of Warren Grubb, Curtin University, Perth, Australia, and various antibiotics were employed but for each series a control test comprising addition of iron sufficient to supply two times the chelating capacity of the supplied chelating composition was also included.

[8] = system: Candida albicans ATCC 10231; test: Challenge growth test, fluconazole and chelator within a semi-permeable device; type: cell-based
Description: In one such culture, only medium was present as a control. […] The chelator was not added directly to the culture medium but was provided as within a dialysis membrane within the culture medium, such that only the external surfaces of the dialysis membrane device were in contact with the bulk of the culture medium, the chelator being within the membrane bag. The dialysis membrane was of the same type that had been used to prepare the soluble chelator and thus its use here ensured that the added chelator would be retained within the membrane device as in contact with the culture medium from within a semi-permeable membrane, i.e., the dialysis tubing. […] All four test cultures were inoculated with the yeast and growth was monitored at intervals in the test cultures by optical density measurement at 600 nm over a 120 hr test period.

[9] = system: Candida albicans ATCC 10231; test: Fluconazole MIC (80% growth inhibition) with soluble chelator; type: cell-based
Procedure: Candida albicans ATCC 10231, yeast cells, as grown in defined medium with no additional added Fe as in example 18, were tested in the same media for their sensitivities to fluconazole, an anti-cellular agent as proto-typical of the azole class of antibiotics that are commonly used to control fungal growth and pathogenesis in humans and with fluconazole plus the soluble chelating composition, as prepared in Example 4. Fluconazole as a typical member of the azole class of anti-fungal antibiotics that function by inhibiting sterol synthesis.

[10] = system: Candida albicans ATCC 10231; test: Challenge growth test, sorbate and chelator within a semi-permeable device; type: cell-based; details: sorbate […] with 0.3 mg soluble chelator (example 4) in the semi-permeable device
Description: In one such culture, only medium was present as a control. […] The chelator was not added directly to the culture medium but was provided as within a dialysis membrane within the culture medium, such that only the external surfaces of the dialysis membrane device were in contact with the bulk of the culture medium, the chelator being within the membrane bag. The dialysis membrane was of the same type that had been used to prepare the soluble chelator and thus its use here ensured that the added chelator would be retained within the membrane device as in contact with the culture medium from within a semi-permeable membrane, i.e., the dialysis tubing. Thus the chelator would not be in direct physical contact with the yeast cells while any iron or sorbate or other low molecular weight media constituents or low molecular weight yeast cell products in the test milieu could diffuse in or out of the semi-permeable device. In a fourth test, 0.3 mg soluble chelator within a similar dialysis bag was added but sorbate was not added to the medium. All four test cultures were inoculated with the yeast and growth was monitored at intervals in the test cultures by optical density measurement at 600 nm over a 120 hr test period.

[11] = system: Candida albicans ATCC 10231; test: Preservative agent MIC (80% inhibition) challenge test with soluble chelator; type: cell-based
[12] = Escherichia coli, treated RPMI with 0.02 μM Fe, read-out: MIC
[13] = Pseudomonas aeruginosa, treated RPMI with 0.02 μM Fe, read-out: MIC

CC(=O)N(O)CCCCCNC(=O)CCC(=O)N(O)CCCCCNC(=O)CCC(=O)N(O)CCCCCN [DESFERAL, deferoxamine]
MIC ([1]; Escherichia coli, treated RPMI with 0.09 μM Fe): 0.59 µg/mL
MIC [1, 12]: 0.009 µg/mL
MIC ([2]; treated RPMI with 0.02 μM Fe): > 300 µg/mL
MIC ([2]; treated RPMI with 0.09 μM Fe): > 300 µg/mL
MIC [3, 13]: > 300 µg/mL
MIC ([3]; treated RPMI with 0.09 μM Fe): >300 µg/mL

Cc1c(O)c(=O)ccn1C [Deferiprone, 1,2-dimethyl-3-hydroxy-pyridin-4-one]
inhibition of growth [4]: about 15%
MIC [1, 12]: > 100 µg/mL
MIC ([1]; treated RPMI with 0.09 μM Fe): >100 µg/mL
MIC ([2]; treated RPMI with 0.02 μM Fe): 12.5 µg/mL
MIC ([2]; treated RPMI with 0.09 μM Fe): 25 µg/mL
growth of the yeast compared to control [5]: did not substantially restrict growth
Log 10 K(assoc) [6]: 36
MIC [3, 13]: > 100 µg/mL
MIC ([3]; treated RPMI with 0.09 μM Fe): >100 µg/mL
MIC Streptomycin ([7]; chelator added 7.4 mM Fe binding equivalents, * slight growth <5% of control turbidity at 640 μg/ml): >640* μg/ml
growth at 640 μg/ml streptomycin ([7]; chelator added 15 mM Fe binding equivalents): still allowed slight growth

OC(Cn1cncn1)(Cn1cncn1)c1ccc(F)cc1F [Fluconazole]
yeast growth (OD 600 nm over 120 hr) ([8]; fluconazole 0.083 μg/ml alone): only delayed and partially restricted yeast growth
yeast growth (OD 600 nm over 120 hr) ([8]; fluconazole 0.083 μg/ml with 0.3 mg soluble chelator (example 4) in the semi-permeable device): prevented growth completely
MIC ([9]; ATCC10231, 96 h, Fluconazole alone, 4 d): > 6 µg/mL
MIC ([9]; ATCC10231, 96 h, plus 25 μg/ml soluble chelator (example 4), 4 d): < 0.05 µg/mL
MIC ([9]; ATCC10231, 96 h, plus Fe-saturated soluble chelator, 4 d): > 6 µg/mL
MIC ([9]; ATCC10231, 96 h, plus […] soluble chelator (Example 4), 4 d): < 0.05 µg/mL
MIC ([9]; ATCC10231, 240 h, Fluconazole alone, 10 d): > 6 µg/mL
MIC ([9]; ATCC10231, 240 h, plus 25 μg/ml soluble chelator (example 4), 10 d): < 0.05 µg/mL
MIC ([9]; ATCC10231, 240 h, plus Fe-saturated soluble chelator, 10 d): > 6 µg/mL
MIC ([9]; ATCC10231, 240 h, plus […] soluble chelator (Example 4), 10 d): 0.05 µg/mL
MIC ([9]; ATCC10231, Fluconazole alone, 42 d): > 6 µg/mL
MIC ([9]; ATCC10231, plus 25 μg/ml Soluble chelator (Example 4), 42 d): < 0.05 µg/mL
MIC ([9]; ATCC10231, plus Fe-saturated soluble chelator, 42 d): > 6 µg/mL
MIC ([9]; ATCC10231, plus […] soluble chelator (Example 4), 42 d): 0.19 µg/mL

C/C=C/C=C/C(=O)[O-].[K+] [Sorbate, potassium sorbate]
yeast growth (OD 600 nm over 120 hr) [10]: prevented growth completely
MIC ([11]; ATCC10231, 48 h, read-out: Sorbate or Paraben MIC, plus soluble chelating composition (Example 4) 25 μg/ml, 2 days): < 20 µg/mL
MIC ([11]; ATCC10231, 48 h, read-out: Sorbate or Paraben MIC, plus soluble chelating composition (Example 4) […], 2 days): < 20 µg/mL
MIC ([11]; ATCC10231, 48 h, read-out: Sorbate or Paraben MIC, preservative alone, 2 days): 120 µg/mL
MIC ([11]; ATCC10231, 240 h, read-out: Sorbate or Paraben MIC, plus soluble chelating composition (Example 4) 25 μg/ml, 10 days): 30 µg/mL
MIC ([11]; ATCC10231, 240 h, read-out: Sorbate or Paraben MIC, plus soluble chelating composition (Example 4) […], 10 days): < 20 µg/mL
MIC ([11]; ATCC10231, 240 h, read-out: Sorbate or Paraben MIC, preservative alone, 10 days): 250 µg/mL
